Assay [1] addresses T1, Alpha-2A adrenergic receptor (Homo sapiens, UniProt P08913).
T1 sequence (P08913 whole entry): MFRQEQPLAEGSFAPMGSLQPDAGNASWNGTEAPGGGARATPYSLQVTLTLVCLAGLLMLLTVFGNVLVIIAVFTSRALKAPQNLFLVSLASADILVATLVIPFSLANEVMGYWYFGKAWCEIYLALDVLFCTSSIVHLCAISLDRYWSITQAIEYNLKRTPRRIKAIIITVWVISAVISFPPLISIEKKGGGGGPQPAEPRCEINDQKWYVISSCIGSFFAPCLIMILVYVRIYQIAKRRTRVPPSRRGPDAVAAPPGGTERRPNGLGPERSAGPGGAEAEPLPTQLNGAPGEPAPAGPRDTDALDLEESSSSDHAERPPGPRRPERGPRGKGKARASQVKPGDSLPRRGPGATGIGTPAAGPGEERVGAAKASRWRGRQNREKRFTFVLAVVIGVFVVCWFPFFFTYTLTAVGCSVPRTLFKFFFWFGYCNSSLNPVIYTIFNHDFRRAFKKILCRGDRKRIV
The assay is described as follows: Displacement of [3H]RS-79948-197 from human adrenoceptor aplha 2A expressed in CHO cells. Type of assay: cell-based.

The target of assay [2] is T2, Alpha-2B adrenergic receptor (Homo sapiens, UniProt P18089).
T2 sequence (P18089 whole entry): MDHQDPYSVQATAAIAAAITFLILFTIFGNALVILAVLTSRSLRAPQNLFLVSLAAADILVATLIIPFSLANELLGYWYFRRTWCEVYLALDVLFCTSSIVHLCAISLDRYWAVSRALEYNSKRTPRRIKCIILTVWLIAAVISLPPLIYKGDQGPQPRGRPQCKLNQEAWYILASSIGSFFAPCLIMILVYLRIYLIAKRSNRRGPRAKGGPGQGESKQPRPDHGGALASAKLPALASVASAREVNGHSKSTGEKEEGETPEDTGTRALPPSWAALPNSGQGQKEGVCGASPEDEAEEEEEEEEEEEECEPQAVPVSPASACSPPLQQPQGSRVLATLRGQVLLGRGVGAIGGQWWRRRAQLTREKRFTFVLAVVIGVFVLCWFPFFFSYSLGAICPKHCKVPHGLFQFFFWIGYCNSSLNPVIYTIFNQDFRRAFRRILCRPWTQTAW
The assay is described as follows: Displacement of [3H]RS-79948-197 from human adrenoceptor aplha 2B expressed in CHO cells. Type of assay: cell-based.

Assay [3] addresses T3, Alpha-2C adrenergic receptor (Homo sapiens, UniProt P18825).
T3 sequence (P18825 whole entry): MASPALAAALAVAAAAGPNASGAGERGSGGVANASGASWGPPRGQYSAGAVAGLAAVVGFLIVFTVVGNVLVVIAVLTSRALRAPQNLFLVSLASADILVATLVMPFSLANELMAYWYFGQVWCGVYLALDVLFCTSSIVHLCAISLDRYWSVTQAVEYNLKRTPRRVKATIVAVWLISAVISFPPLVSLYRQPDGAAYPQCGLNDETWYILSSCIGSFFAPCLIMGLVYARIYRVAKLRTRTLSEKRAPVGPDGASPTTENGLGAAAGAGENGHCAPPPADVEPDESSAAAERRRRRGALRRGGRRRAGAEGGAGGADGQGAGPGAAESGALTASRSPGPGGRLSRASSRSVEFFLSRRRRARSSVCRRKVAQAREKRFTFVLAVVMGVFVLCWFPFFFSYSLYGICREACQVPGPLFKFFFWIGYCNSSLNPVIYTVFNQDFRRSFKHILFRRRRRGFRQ
The experiment in a line: Displacement of [3H]RS-79948-197 from human adrenoceptor aplha 2C expressed in CHO cells. Type of assay: cell-based.

Assay [4] deals with T1, Alpha-2A adrenergic receptor. The experiment in a line: Agonist activity at human adrenoceptor aplha 2A expressed in CHO cells assessed as rate of extracellular acidification by cytosensor microphysiometric analysis. Type of assay: functional, cell-based.
The target of assay [5] is T2, Alpha-2B adrenergic receptor. The experiment in a line: Agonist activity at human adrenoceptor aplha 2B expressed in CHO cells assessed as rate of extracellular acidification by cytosensor microphysiometric analysis. Type of assay: functional, cell-based.
The target in assay [6] is T3, Alpha-2C adrenergic receptor. The assay is described as follows: Agonist activity at human adrenoceptor aplha 2C expressed in CHO cells assessed as rate of extracellular acidification by cytosensor microphysiometric analysis. Type of assay: functional, cell-based.
In assay [7] the target is T4, Alpha-2B adrenergic receptor (Homo sapiens) (UniProt P18089).
T4 sequence (whole entry): T2 sequence (P18089 whole entry)
The assay is described as follows: Intrinsic activity at human adrenoceptor aplha 2B expressed in CHO cells by cytosensor microphysiometric analysis relative to (-)-noradrenaline. Type of assay: cell-based.

The target in assay [8] is T5, Alpha-2C adrenergic receptor (Homo sapiens) (UniProt P18825).
T5 sequence (whole entry): T3 sequence (P18825 whole entry)
The assay is described as follows: Intrinsic activity at human adrenoceptor aplha 2C expressed in CHO cells by cytosensor microphysiometric analysis relative to (-)-noradrenaline. Type of assay: cell-based.

In assay [9] the target is T6, Alpha-2A adrenergic receptor (Homo sapiens) (UniProt P08913).
T6 sequence (whole entry): T1 sequence (P08913 whole entry)
Conditions: CHO.
Description: Antagonist activity at human adrenoceptor aplha 2A expressed in CHO cells assessed as inhibition of clonidine-induced response by cytosensor microphysiometric analysis

With `CC(Oc1ccccc1S(C)(=O)=O)C1=NCCN1` (centres undefined), the Ki was 3160 nM in assay [1], 51300 nM in [2] and 3800 nM in assay [3]. For the same compound, the figures for the EC50 in [4], in assay [5] and in assay [6] were 562 nM, 10000 nM and 316 nM, respectively. In addition, the results for the Intrinsic activity in [7] and in assay [8] were 0.45 and 0.6, respectively.

For the compound `CCOc1ccccc1OC(C)C1=NCCN1` (centres undefined), the Ki in [1] was 97.7 nM; in assay [2], 1320 nM; in assay [3], 759 nM. Also, the EC50 was 3160 nM in [5] and 10000 nM in assay [6]. Besides, the figures for the Intrinsic activity in assay [7] and in assay [8] were 0.5 and 0.45, respectively. The pKb in assay [9] was determined as 6.5.

Take `CC(Oc1ccccc1OC1CC1)C1=NCCN1` (centres undefined): the values for the inhibitory constant (Ki) in assay [1], in assay [2] and in [3] were 83.2 nM, 1050 nM and 676 nM, respectively. Further, the EC50 in [5] was 12900 nM; in [6] it was 47.9 nM. For the same compound, the Intrinsic activity is 0.6 in [7] and 0.7 in assay [8]. Moreover, the pKb in assay [9] was determined as 6.9.

As to `CC(Oc1ccccc1Br)C1=NCCN1` (centres undefined), the Ki in assay [1] was 22.9 nM; in [2] it was 355 nM; in [3], 282 nM. For the same compound, the EC50 is 316 nM in assay [5] and 10 nM in assay [6]. Moreover, the Intrinsic activity in assay [7] was found to be 0.4; in assay [8] it was 0.87. In [9], this compound returned a negative-log Kb (pKb) of 7.04.

As to `C=CCc1cccc(CC=C)c1OC(C)C1=NCCN1` (centres undefined), the Ki in assay [1] is 16.6 nM; in [2], 275 nM; in assay [3] it was 129 nM. The values for the EC50 in assay [5] and in [6] were 501 nM and 56.2 nM, respectively. Further, the values for the Intrinsic activity in assay [7] and in [8] were 0.65 and 0.9, respectively. Further, the pKb in assay [9] is 8.56.

For the compound `CC(Oc1ccccc1CC1CC1)C1=NCCN1` (centres undefined) [CYCLOMETHYLINE], the Ki was 36.3 nM in assay [1], 407 nM in [2] and 275 nM in [3]. Moreover, the EC50 was 3310 nM in assay [5] and 2 nM in assay [6]. The results for the Intrinsic activity in assay [7] and in assay [8] were 0.7 and 0.8, respectively.

Turning to `CC(Oc1ccccc1C(C)C)C1=NCCN1` (centres undefined), the values for the Ki in [1], in assay [2] and in assay [3] were 72.4 nM, 933 nM and 457 nM, respectively. Also, the EC50 in assay [5] was 251 nM; in assay [6], 398 nM. For the same compound, the Intrinsic activity in assay [7] is 0.54; in [8] it was 0.73. The compound also yielded a pKb in assay [9] of 6.82.

For the compound `C=C(C)c1ccccc1OC(C)C1=NCCN1` (centres undefined), the Ki in assay [1] was 72.4 nM; in assay [2], 871 nM; in [3], 603 nM. For the same compound, the EC50 was 1580 nM in assay [5] and 115 nM in assay [6]. Also, the figures for the Intrinsic activity in assay [7] and in assay [8] were 0.4 and 0.71, respectively. Further, the pKb in [9] was 7.

Turning to `CCc1cccc(CC)c1OC(C)C1=NCCN1` (centres undefined), the Ki is 31.6 nM in assay [1], 269 nM in assay [2] and 275 nM in assay [3]. The EC50 in [4] was 11.7 nM; in assay [5], 1000 nM; in assay [6], 27.5 nM. For the same compound, the Intrinsic activity came out at 0.8 in assay [7] and 0.65 in assay [8].

As to `COc1ccccc1OC(C)C1=NCCN1` (centres undefined), the results for the Ki in assay [1], in assay [2] and in assay [3] were 57.5 nM, 871 nM and 832 nM, respectively. Moreover, the EC50 is 100000 nM in [5] and 9770 nM in [6]. Also, the Intrinsic activity was found to be 0.5 in assay [7] and 0.6 in [8]. Besides, the pKb in assay [9] stood at 6.6.

On to `CC(Oc1ccccc1C(F)(F)F)C1=NCCN1` (centres undefined), for which the Ki is 182 nM in assay [1], 1620 nM in assay [2] and 977 nM in assay [3]. For the same compound, the EC50 in [5] was 240 nM; in assay [6], 794 nM. In addition, the results for the Intrinsic activity in assay [7] and in assay [8] were 0.4 and 0.72, respectively. The compound also registered a pKb in assay [9] of 6.42.

Regarding `CC(=O)c1ccccc1OC(C)C1=NCCN1` (centres undefined), the Ki in [1] is 1020 nM; in assay [2] it was 6170 nM; in [3], 7410 nM. The EC50 in [4] is 63.1 nM; in assay [5], 295 nM; in assay [6] it was 200 nM. The Intrinsic activity in assay [7] is 0.6; in [8], 0.65.

Take `CC(C)Oc1ccccc1OC(C)C1=NCCN1` (centres undefined): the Ki in assay [1] is 83.2 nM; in [2] it was 1580 nM; in [3], 398 nM. For the same compound, the EC50 was 1740 nM in [5] and 100 nM in assay [6]. For the same compound, the Intrinsic activity in assay [7] is 0.5; in assay [8], 0.7. Further, the pKb in assay [9] amounted to 6.82.

Take `CC(Oc1ccccc1C=O)C1=NCCN1` (centres undefined): the Ki in [1] was 1050 nM; in assay [2], 2090 nM; in assay [3], 8710 nM. Moreover, the concentration giving a half-maximal response (EC50) in assay [4] was 31.6 nM; in assay [5], 316 nM; in assay [6], 100 nM. Besides, the Intrinsic activity in assay [7] was determined as 0.5; in assay [8], 0.6.

As for `Cc1cccc(C)c1OC(C)C1=NCCN1` (centres undefined), the Ki in assay [1] is 11.7 nM; in assay [2] it was 182 nM; in [3], 251 nM. For the same compound, the EC50 is 18.6 nM in assay [4], 1480 nM in assay [5] and 27.5 nM in assay [6]. Moreover, the Intrinsic activity in assay [7] is 0.8; in [8] it was 0.82.

For the compound `CC(Oc1ccccc1Cl)C1=NCCN1` (centres undefined), the figures for the Ki in assay [1], in assay [2] and in assay [3] were 28.8 nM, 331 nM and 490 nM, respectively. In addition, the results for the EC50 in assay [5] and in assay [6] were 162 nM and 166 nM, respectively. Moreover, the values for the Intrinsic activity in assay [7] and in assay [8] were 0.44 and 0.83, respectively. The pKb in assay [9] came out at 7.2.

For the compound `CC(Oc1c(Cl)cccc1Cl)C1=NCCN1` (centres undefined) [LOFEXIDINE], the Ki is 67.6 nM in assay [2] and 69.2 nM in assay [3]. In addition, the EC50 in [5] was 126 nM; in [6] it was 1.38 nM. Further, the Intrinsic activity in assay [7] and in assay [8] was 0.8 each time.

`C=COc1ccccc1OC(C)C1=NCCN1` (centres undefined): the EC50 was 3160 nM in [5] and 631 nM in assay [6]. For the same compound, the Intrinsic activity in assay [7] was 0.45; in assay [8], 0.48. In assay [9], the pKb came out at 5.

For `CC(Oc1c(-c2ccccc2)cccc1-c1ccccc1)C1=NCCN1` (centres undefined), the Ki was 490 nM in assay [1], 4570 nM in assay [2] and 631 nM in [3]. Also, the EC50 in assay [5] is 200 nM; in assay [6], 79.4 nM. Also, the Intrinsic activity in [7] came out at 0.6; in [8] it was 0.7. The compound further displayed a pKb in assay [9] of 8.

For the compound `CCc1ccccc1OC(C)C1=NCCN1` (centres undefined), the Ki in assay [1] was 24 nM; in assay [2], 282 nM; in assay [3], 288 nM. The EC50 in assay [5] was 10000 nM; in assay [6], 100 nM. Moreover, the Intrinsic activity in assay [7] stood at 0.5; in assay [8], 0.6. Moreover, the negative-log Kb (pKb) in assay [9] came to 6.

Source of the values: ChEMBL document CHEMBL1955818, “Might the observed α(2A)-adrenoreceptor agonism or antagonism of allyphenyline analogues be ascribed to different molecular conformations?” (Bioorg Med Chem, 2012).
